Data as given in patent publication US20080050452A1, “METAL-CONTAINING FORMULATIONS AND METHODS OF USE” (priority 2006, published 2008).

Test system: E. coli
Assay: Minimal bactericidal concentration (MBC) assay
Type: cell-based, Escherichia coli
Description: Minimal bactericidal concentration (MBC) assay—Overnight-grown MIC plates, prepared as described in Example 16, were evaluated to determine the MIC. Culture was then sampled from wells at and near the MIC using sterile inoculating loops, and transferred to fresh MHA plates to determine if viable bacteria remained. […] The MBC was determined as the well in the MIC plate which contained the lowest concentration of silver yielding no bacterial growth on the MHA plate.

`O=[N+]([O-])[O-].[Ag+]` [AgNO3, silver nitrate] gave an MBC (E. coli ATCC type strain 8739) of 0.4 parts silver per million, an MBC (E. coli ATCC type strain 43745) of 0.4 parts silver per million and an MBC (E. coli isolate NP412) of 1 parts silver per million.
